Experimental data published in US9421209B2, “Kinase modulators” (Rhizen Pharmaceuticals SA, priority 2009, dated 2016).

Experiments:
P110 δ/Pi3K δ = P110 δ/Pi3K δ (Homo sapiens, UniProt O00329); assay: Fluorescent (HTRF) determination of PI3K enzyme activity, δ isoform; type: biochemical; set-up: inhibition: dose or concentration left out as unconfirmed
Outline: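 IC50 fitted from percent inhibition relative to blank and enzyme-only wells. Human PI3Kδ converts PIP2 to PIP3 after addition of 400 μM ATP solution, 30 min at room temperature. Product read by time-resolved FRET after stop and 6–18 h dark incubation with detection reagents.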

P110β = P110β (Homo sapiens, UniProt P42338); assay: Fluorescent (HTRF) determination of PI3K enzyme activity, β isoform; type: biochemical
Outline: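 Recombinant human PI3K isoforms incubated 10 min at room temperature with inhibitor and 1.38 μM PIP2 (10 mM MgCl2, 5 mM DTT), then 30 min after adding 400 μM ATP stock. PIP3 formation detected by HTRF (665/620 nm); % inhibition versus blank and enzyme controls gives IC50.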

P110γ = P110γ (Homo sapiens, UniProt P48736); assay: Fluorescent (HTRF) determination of PI3K enzyme activity, γ isoform; type: biochemical
Excerpt: (§1) Assay 1: Fluorescent determination of PI3Kinase Kinase enzyme activity
(§2) Phosphoinositide 3 kinases (PI3K) belong to a class of lipid kinases that play a critical role in the regulation of several key cellular processes. The PI3K are capable of phosphorylating the 3-hydroxy position of phosphoinositols thereby generating second messengers involved in downstream signalling events. The homogenous time resolved fluorescence (HTRF) assay allows detection of 3,4,5-triphosphate (PIP3) formed as a result of phosphorylation of phosphotidylinositol 4,5-biphosphate (PIP2) by PI3K isoforms such as α, β, γ or δ.
(§3) PI3K isoform activity for α, β, γ or δ was determined using a PI3K human HTRF™ Assay Kit (Millipore, Billerica, Mass.) with modifications. All incubations were carried out at room temperature. Briefly, 0.5 μl of 40× inhibitor (in 100% DMSO) or 100% DMSO were added to each well of a 384-well black plate (Greiner Bio-One, Monroe, N.C.) containing 14.5 μl 1× reaction buffer/PIP2 (10 mM MgCl2, 5 mM DTT, 1.38 μM PIP2) mix with or without enzyme and incubated for 10 min. After the initial incubation, 5 μl/well of 400 μM ATP was added and incubated for an additional 30 minutes. Reaction was terminated by adding 5 μl/well stop solution (Millipore, Billerica, Mass.). Five microliters of detection mix (Millipore, Billerica, Mass.) were then added to each well and was incubated for 6-18 h in the dark. HRTF ratio was measured on a microplate reader (BMG Labtech., Germany) at an excitation wavelength of 337 nm and emission wavelengths of 665 and 620 nm with an integration time of […]. Data were analyzed using Graphpad Prism (Graphpad software; San Diego Calif.) for IC50 determination. Percent inhibition was calculated based on the values for the blank and enzyme controls. The results are provided below in Table 2 & 3.

P110α = P110α (Homo sapiens, UniProt P42336); assay: Fluorescent (HTRF) determination of PI3K enzyme activity, α isoform; type: biochemical
Excerpt: as §1, §2, §3

Sequence of P110β (P42338 whole entry, canonical isoform): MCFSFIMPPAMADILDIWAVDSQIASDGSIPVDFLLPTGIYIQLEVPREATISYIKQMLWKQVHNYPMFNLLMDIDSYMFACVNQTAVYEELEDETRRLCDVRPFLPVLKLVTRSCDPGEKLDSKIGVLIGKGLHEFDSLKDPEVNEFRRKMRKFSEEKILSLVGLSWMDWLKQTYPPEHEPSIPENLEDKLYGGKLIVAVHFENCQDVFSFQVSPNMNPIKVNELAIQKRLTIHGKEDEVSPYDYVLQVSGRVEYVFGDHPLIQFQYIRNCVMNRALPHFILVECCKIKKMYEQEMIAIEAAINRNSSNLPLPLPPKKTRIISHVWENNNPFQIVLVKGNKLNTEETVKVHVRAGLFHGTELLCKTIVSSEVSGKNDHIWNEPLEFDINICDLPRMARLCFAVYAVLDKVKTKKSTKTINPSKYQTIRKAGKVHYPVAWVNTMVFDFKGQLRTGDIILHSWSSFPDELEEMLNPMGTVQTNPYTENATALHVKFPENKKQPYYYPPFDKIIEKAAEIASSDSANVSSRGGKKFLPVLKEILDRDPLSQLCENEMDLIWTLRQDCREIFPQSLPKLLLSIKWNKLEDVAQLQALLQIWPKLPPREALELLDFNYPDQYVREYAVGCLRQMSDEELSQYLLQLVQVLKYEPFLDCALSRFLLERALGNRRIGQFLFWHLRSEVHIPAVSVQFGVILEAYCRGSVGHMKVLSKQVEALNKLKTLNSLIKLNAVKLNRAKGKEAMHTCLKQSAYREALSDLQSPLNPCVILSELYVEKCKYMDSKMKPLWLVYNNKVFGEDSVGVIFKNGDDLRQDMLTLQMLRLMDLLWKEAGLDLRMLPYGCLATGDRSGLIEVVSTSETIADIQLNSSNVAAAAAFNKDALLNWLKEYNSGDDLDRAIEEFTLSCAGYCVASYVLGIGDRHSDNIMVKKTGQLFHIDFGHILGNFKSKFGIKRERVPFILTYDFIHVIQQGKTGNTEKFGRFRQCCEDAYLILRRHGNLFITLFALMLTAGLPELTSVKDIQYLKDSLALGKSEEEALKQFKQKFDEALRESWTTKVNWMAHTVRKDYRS
Sequence of P110β (P27986 whole entry partner, canonical isoform): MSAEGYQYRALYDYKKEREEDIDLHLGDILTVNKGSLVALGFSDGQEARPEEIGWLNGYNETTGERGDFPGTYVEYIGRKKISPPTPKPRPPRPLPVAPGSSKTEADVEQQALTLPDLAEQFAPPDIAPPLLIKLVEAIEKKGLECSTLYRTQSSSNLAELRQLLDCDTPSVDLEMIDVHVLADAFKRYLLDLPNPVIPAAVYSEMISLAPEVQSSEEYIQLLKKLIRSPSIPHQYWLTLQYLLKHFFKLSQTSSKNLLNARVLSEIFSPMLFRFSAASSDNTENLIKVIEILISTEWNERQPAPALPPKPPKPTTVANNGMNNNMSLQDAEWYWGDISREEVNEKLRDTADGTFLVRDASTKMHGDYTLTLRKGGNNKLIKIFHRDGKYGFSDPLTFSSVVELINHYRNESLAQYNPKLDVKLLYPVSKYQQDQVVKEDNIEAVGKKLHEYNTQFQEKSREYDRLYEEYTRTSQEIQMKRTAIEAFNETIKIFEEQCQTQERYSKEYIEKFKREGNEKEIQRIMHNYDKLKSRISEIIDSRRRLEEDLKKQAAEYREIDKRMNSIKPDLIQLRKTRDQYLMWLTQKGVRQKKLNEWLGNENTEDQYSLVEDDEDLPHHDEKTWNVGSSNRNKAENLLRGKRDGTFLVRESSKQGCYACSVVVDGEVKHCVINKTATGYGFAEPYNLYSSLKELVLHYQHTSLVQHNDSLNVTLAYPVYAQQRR
Sequence of P110 δ/Pi3K δ (O00329 whole entry, canonical isoform): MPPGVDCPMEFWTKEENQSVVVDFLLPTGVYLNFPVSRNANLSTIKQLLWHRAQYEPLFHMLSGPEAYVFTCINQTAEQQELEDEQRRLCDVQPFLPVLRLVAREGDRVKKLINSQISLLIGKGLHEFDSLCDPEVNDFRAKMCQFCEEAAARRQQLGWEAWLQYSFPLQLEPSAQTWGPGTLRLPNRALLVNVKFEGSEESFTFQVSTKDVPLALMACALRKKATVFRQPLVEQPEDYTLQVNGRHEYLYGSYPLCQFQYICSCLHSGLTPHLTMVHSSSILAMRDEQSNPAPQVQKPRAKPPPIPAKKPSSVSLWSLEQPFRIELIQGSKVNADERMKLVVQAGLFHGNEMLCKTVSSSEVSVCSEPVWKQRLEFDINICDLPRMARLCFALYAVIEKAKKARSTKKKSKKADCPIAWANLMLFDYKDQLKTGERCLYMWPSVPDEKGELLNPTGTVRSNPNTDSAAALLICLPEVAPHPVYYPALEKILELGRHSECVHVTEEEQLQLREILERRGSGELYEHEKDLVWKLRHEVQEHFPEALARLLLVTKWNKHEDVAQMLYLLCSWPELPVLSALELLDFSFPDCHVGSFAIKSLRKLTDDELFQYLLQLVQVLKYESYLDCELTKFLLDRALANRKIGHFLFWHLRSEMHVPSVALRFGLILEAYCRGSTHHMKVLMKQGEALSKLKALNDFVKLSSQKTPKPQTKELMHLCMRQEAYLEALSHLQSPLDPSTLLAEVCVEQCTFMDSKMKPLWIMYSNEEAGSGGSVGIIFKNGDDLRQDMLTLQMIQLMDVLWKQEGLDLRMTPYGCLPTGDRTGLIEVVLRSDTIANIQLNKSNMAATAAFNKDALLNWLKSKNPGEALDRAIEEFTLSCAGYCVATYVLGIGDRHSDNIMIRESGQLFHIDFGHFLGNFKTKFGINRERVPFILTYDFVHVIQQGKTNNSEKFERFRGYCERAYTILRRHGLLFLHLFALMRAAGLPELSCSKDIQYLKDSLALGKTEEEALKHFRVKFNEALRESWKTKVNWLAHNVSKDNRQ
Sequence of P110 δ/Pi3K δ (P27986 whole entry partner, canonical isoform): as the sequence (P27986 whole entry partner, canonical isoform) above
Sequence of P110γ (P48736 whole entry, canonical isoform): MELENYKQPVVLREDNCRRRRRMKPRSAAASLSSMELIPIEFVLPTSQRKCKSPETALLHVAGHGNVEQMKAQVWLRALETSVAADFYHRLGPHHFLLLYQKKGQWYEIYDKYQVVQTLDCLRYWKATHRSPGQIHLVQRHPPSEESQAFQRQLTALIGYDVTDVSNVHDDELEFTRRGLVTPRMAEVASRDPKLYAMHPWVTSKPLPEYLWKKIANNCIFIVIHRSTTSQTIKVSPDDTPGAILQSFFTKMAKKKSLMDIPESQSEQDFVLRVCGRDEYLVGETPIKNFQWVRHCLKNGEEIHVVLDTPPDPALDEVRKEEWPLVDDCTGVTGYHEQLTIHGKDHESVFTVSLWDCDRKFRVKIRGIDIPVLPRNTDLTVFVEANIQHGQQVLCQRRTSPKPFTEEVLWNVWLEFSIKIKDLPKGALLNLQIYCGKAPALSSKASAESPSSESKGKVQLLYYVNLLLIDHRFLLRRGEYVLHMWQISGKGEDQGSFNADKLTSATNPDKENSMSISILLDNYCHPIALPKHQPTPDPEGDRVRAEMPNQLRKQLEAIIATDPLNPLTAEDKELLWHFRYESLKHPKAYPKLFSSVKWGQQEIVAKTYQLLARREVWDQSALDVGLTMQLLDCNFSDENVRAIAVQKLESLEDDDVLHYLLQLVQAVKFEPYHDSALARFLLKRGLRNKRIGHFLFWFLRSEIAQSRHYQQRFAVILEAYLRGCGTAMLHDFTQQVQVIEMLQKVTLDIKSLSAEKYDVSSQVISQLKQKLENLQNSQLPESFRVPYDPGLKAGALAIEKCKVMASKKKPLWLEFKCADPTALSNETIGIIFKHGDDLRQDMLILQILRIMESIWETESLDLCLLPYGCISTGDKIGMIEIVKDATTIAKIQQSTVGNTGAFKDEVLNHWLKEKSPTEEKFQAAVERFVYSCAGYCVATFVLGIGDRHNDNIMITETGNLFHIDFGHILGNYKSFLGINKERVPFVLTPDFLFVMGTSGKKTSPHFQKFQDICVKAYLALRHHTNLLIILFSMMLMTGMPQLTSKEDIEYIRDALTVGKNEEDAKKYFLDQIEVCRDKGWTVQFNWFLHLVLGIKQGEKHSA
Sequence of P110α (P42336 whole entry, canonical isoform): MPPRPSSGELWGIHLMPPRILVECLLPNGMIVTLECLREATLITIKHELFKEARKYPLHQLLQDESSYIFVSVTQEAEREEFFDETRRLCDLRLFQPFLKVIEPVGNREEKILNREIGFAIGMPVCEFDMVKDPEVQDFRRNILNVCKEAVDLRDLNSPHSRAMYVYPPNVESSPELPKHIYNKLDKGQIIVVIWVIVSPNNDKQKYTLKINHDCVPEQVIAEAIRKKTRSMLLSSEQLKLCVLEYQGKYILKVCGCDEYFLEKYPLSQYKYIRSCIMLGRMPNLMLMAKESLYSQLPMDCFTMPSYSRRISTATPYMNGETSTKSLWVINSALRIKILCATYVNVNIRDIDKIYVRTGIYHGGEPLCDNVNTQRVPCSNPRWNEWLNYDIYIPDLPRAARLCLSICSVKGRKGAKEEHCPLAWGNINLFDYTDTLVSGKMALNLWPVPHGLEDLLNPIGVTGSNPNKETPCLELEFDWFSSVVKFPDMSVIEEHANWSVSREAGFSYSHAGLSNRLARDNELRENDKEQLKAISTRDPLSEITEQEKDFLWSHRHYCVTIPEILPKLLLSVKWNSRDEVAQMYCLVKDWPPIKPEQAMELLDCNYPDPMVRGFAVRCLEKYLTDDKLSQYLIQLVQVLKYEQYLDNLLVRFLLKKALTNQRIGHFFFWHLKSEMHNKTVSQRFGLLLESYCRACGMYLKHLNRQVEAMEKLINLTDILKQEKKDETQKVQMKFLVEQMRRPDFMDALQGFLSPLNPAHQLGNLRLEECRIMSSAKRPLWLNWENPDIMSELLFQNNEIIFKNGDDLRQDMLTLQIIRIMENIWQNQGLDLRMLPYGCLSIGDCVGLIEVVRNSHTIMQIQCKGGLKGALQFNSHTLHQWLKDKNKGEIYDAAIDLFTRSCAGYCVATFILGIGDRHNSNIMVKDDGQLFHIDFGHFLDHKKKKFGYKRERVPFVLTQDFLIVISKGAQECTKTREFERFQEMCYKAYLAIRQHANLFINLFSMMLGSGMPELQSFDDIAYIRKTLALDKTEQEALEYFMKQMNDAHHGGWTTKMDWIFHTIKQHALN
Sequence of P110α (P27986 whole entry partner, canonical isoform): as the sequence (P27986 whole entry partner, canonical isoform) above

For `Cc1c[nH]c2cc(-c3nn(C(C)c4oc5ccccc5c(=O)c4-c4cccc(F)c4)c4ncnc(N)c34)ccc12` (centres unmarked) [Example 111, 2-(1-(4-amino-3-(3-methyl-1H-indol-6-yl)-1H-pyrazolo[3,4-d]pyrimidin-1-yl)ethyl)-3-(3-fluorophenyl)-4H-chromen-4-one], which inhibition (P110 δ/Pi3K δ) is on record?
The inhibition was 50 to 100%.

What about the inhibition at 1 µM (P110β) of the same compound?
Its inhibition at 1 µM is < 25%.

And the inhibition at 1 µM (P110γ)?
Its inhibition at 1 µM is 50 to 100%.

What about the melting point of the same compound?
Its melting point is 269 to 272 °C.

And the inhibition at 1 µM (P110α)?
Its inhibition at 1 µM is < 25%.
